Earlier results in US8575172B2 (Zysis Limited, priority 2006, dated 2013).
Like-named read-outs stand apart in the source and are kept apart here.

Experiments:
[1] = test system: alpha adrenergic receptors
5-HT2A receptor = 5-HT2A receptor (Homo sapiens, UniProt P28223)
CYP2D6 = CYP2D6 (Homo sapiens, UniProt P10635)
[2] = test system: cholinergic muscarinic receptors
5-HT1A receptor = biological target: T1, 5-HT1A receptor (Homo sapiens, UniProt P08908)
T1 sequence (P08908 1-422): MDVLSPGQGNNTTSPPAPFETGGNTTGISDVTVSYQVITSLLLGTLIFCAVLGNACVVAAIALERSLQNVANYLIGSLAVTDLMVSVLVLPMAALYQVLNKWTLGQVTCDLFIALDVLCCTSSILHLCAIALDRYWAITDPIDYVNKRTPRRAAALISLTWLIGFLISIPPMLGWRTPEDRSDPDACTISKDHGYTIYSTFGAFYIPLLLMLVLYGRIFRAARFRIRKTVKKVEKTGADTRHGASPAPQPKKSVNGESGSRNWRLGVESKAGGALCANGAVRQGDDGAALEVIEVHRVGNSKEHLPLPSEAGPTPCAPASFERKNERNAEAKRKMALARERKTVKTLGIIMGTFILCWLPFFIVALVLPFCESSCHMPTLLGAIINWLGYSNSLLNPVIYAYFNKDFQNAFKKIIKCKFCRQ

[3] = single oral dose
[4] = CYP2D6 poor vs extensive metabolizers

Sequence of CYP2D6 (P10635 whole entry): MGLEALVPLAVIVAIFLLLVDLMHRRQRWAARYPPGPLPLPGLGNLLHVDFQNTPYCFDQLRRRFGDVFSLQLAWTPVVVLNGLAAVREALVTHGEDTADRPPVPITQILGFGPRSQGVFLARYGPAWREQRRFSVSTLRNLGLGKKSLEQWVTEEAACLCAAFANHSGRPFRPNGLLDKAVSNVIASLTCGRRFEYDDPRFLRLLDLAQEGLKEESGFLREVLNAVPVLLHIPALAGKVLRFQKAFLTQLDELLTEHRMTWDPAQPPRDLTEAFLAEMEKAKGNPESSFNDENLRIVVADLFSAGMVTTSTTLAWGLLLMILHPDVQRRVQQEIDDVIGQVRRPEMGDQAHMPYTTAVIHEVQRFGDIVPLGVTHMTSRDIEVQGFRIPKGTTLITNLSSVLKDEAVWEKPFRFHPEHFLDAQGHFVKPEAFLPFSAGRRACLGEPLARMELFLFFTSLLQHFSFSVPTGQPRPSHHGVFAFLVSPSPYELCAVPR
Sequence of 5-HT2A receptor (P28223 whole entry): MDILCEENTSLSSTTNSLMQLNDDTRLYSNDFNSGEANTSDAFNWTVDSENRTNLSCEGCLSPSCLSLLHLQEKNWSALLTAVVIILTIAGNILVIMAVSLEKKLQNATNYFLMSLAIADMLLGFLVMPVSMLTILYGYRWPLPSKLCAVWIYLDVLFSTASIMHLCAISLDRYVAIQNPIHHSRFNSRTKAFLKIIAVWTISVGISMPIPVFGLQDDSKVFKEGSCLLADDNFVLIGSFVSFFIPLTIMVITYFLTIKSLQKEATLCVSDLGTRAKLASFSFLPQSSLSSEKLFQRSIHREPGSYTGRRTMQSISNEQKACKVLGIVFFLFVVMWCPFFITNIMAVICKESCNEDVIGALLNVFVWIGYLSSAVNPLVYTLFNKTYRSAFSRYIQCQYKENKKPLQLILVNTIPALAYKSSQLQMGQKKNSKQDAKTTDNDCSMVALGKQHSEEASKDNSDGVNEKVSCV

## O=C1CCc2ccc(OCCCCN3CCN(c4cccc(Cl)c4Cl)CC3)cc2N1 [aripiprazole, 7-[4-[4-(2,3-dichlorophenyl)piperazin-1-yl]butoxy]-3,4-dihydro-1H-quinolin-2-one]
[1]
  affinity for alpha adrenergic receptors: moderate affinity
5-HT2A receptor
  profile at the 5-HT2A receptor: antagonist
CYP2D6
  effect on the CYP2D6 pathway: does not inhibit or induce
[2]
  affinity for cholinergic muscarinic receptors: no appreciable affinity
CYP2D6 extensive metabolizers (EMs)
  mean elimination half-life: about 75 hours
CYP2D6 poor metabolizers (PMs)
  mean elimination half-life: ~146 h
[4]
  increase in aripiprazole exposure in PMs compared to EMs: ~80%
Administered orally as the solution
  absorption: well absorbed
After administration of the IR tablet
  absorption: well absorbed
From a given dose of aripiprazole
  higher exposure to the total active moieties in PMs compared to EMs: ~60%
In vivo
  mean elimination half-life: about 75 hours
  pharmacokinetics at steady state: dose-proportional
5-HT1A receptor
  activity at the 5-HT1A receptor: partial agonist
[3]
  oral dose recovered unchanged in the feces: approximately 18%
  unchanged aripiprazole excreted in the urine: Less than 1%
[3]; [14C]-labeled
  administered radioactivity recovered in the feces: ~55%
  administered radioactivity recovered in the urine: approximately 25%
Histamine receptors
  affinity for histamine receptors: moderate affinity

## O=c1ccc2ccc(OCCCCN3CCN(c4cccc(Cl)c4Cl)CC3)cc2[nH]1 [dehydro-aripiprazole]
[4]
  decrease in exposure to the active metabolite in PMs compared to EMs: ~30%
At steady state
  share of aripiprazole AUC in plasma: about 40%
In vivo
  mean elimination half-life: ~94 h
  share of the parent drug exposure in plasma: 40%
